Values joined by “and” are separate entries in the source; they are usually repeats but may differ in a detail not shown here. Equal entries are not always repeated. “Also recorded” adds a separate entry of the source.

Assay [1] relates to TPC1 cells. In words: Flow cytometry of cell surface HLA and checkpoint ligands on TPC1 cells. Format: cell-based, human. The method, then:
(§1) If adherent cells, they were seeded one day before treatment.
For orientation: A flow cytometer gives signals particle by particle.

In a further assay the test system is LC-2/ad cells. In words: Flow cytometry of cell surface HLA on LC-2/ad cells. Format: cell-based, human. Particulars: 72 hrs. The protocol:
as §1

Another assay deals with pERK in TPC1 cells. In words: Western blot of pERK in TPC1 cells. Format: cell-based, human. Particulars: TPC1, 24 hrs. The protocol:
Cells were seeded in a 60 mm dish or 6 well plates. After the appropriate time point, cells were harvested and lysed and protein was quantified by a Lowry assay (Bio-Rad DC Protein Assay; #5000116). Protein levels were normalized and run on SDS PAGE gels (Bio-Rad). Protein was transferred to a nitrocellulose membrane using semi-dry transfer. Membrane was blocked and incubated with respective antibodies. When needed, secondary antibodies with HRP were incubated for 1 hr. Enhanced chemiluminescent substrate for HRP enzymes was used to image protein levels (Thermo-Fischer; #34095).
Cells were seeded in a 60 mm dish or 6 well plates. After the appropriate time point, cells were harvested, lysed in RIPA buffer (Thermo Instruments) and protein concentration was quantified by a Lowry assay (using the Bio-Rad DC Protein Assay; #5000116 on a Spectramax device from Molecular Devices). Protein loading levels were equalized per lane and separated on SDS gels (Bio-Rad). Protein was transferred to a nitrocellulose membrance using semi-dry transfer (BioRad). Membranes were blocked with Omniblock (American Bio) and incubated with respected antibodies. When needed, secondary antibodies with HRP were incubated for 1 hr. Enhanced chemiluminescent substrate for HRP enzymes was used to image protein levels (Thermo-Fischer; #34095) on a ChemiDoc MP imager with Soft Max Pro software (Biorad).
Background: A western blot detects proteins with antibodies after separation by electrophoresis.

In assay [2] the test system is TPC1 cells. In words: ADCC chromium-51 release assay with ESK1 and human PBMCs on inhibitor-pretreated TPC1 cells. Format: cell-based. The protocol:
Peripheral blood mononuclear cells were derived from healthy donors by Ficoll density centrifugation after receiving informed consent on Memorial Sloan Kettering Institutional Review board-approved protocols. TPC1 cells treated with RET inhibitor drugs and DMSO control were labeled with chromium-51 and co-cultured with PBMCs and ESK (or its isotype control, hIgG1). Different E:T ratios were used and after 5 hrs of incubation at 37° C., the supernatant was harvested and chromium levels were measured by Chromium-51 release assay (Perkin Elmer). Higher chromium levels indicated higher levels of cytotoxicity.
After the addition of ESK and peripheral blood mononuclear cells for 5 hrs, chromium release was measured.
For each experiment reported, fresh peripheral blood mononuclear cells were derived from a healthy donor by Ficoll density centrifugation after receiving informed consent on Memorial Sloan Kettering Institutional Review Board-approved protocols. […] Cells were then labeled with 1 uCi/well chromium-51 for 1 hr at 37° C. […] Different effector:target ratios were used and after 5 hrs of incubation at 37° C., the supernatant was harvested and chromium levels were measured through standard chromium-51 release assay on a Top Count machine (Perkin Elmer).

Another assay relates to TPC1 tumors. Briefly: TPC1 subcutaneous tumors in NRG mice, tumor HLA and PD-L1 by flow cytometry. Format: in vivo. The settings on record: 7 days. The method, then: Female NSG (NOD.Cg-Prkdc^scidIl2rg^tm1Wj1/SzJ) and NRG (NOD.Cg-Rag1^tm1MomIl2rg^tm1Wj1/SzJ) mice were purchased from the Jackson Laboratory or MSKCC breeding facility at 5-10 weeks old. For RET and ALK experiments, 2.5-6×10^6 tumor cells were subcutaneously injected into the flank of mice and when tumors were palpable, mice were treated daily with drug or vehicles through oral gavage. At day 7, tumors were harvested and flow cytometry was run to determine effect of inhibitors on HLA and PD-L1 on the tumor cells.
To determine if the inhibitors produced similar therapeutic improvements in vivo, mice bearing the TPC1 tumor were treated with RET inhibitors. The highly immunodeficient NRG (NOD-Rag1null IL2rgnull) mice were subcutaneously injected with 2.5×10^6 luciferase tagged TPC1 cells in their right flank. […] Afterwards, cells were immediately harvested and stained with antibodies against HLA-A*02:01 and HLA-ABC.
All animal experiments were conducted in accordance with and the approval of the MSKCC IACUC (Institutional Animal Care and Use Committee) protocols. Female NSG (NOD. Cg-Prkdc^scidIl2rg^tm1Wj1/SzJ) and NRG (NOD.Cg-Rag1^tm1MomIl2rg^tm1Wj1/SzJ) mice were purchased from the Jackson Laboratory at 5-10 weeks old. For experiments in vivo with RET and ALK, 2.5-6×10^6 tumor cells in PBS were subcutaneously injected into the flank of mice. […]

For the compound `CCN1CCN(Cc2ccc(NC(=O)Nc3ccc(Oc4cc(NC)ncn4)cc3)cc2C(F)(F)F)CC1` [AST487], the “HLA levels increase without STAT3 knockdown” value in the assay on TPC1 cells [1] (TPC1, 10 nM AST487, 72 hrs) amounted to 3 fold. Moreover, the “increase in surface HLA-A,B,C levels” value with TPC1 cells [1] (TPC1, 72 hours) was 3- to 4 fold and 3 to 4 fold. Also, in the assay on TPC1 cells [1] (TPC1, 72 hrs), the “surface HLA-A*02:01” value is “dose dependent increase in surface HLA-A*02”, the “surface HLA-A,B,C” value is “Surface HLA-A,B,C increase” and the “surface HLA-E levels” value is on record as “did not change”. Further, the “HLA upregulation, AST487 compared with trametinib at the same concentrations” value in the assay with TPC1 cells [1] (TPC1, 72 hrs, normalized to DMSO) was “more potent and increased HLA levels at lower doses of drug; also recorded: higher levels of HLA upregulation”. Also, the “HLA-A02 (BB7-FITC) surface level” value with TPC1 cells [1] (TPC1, AST 487 10 nM, 72 hours) is “led to upregulation of HLA”. Also, the “HLA levels increase after siSTAT3 pretreatment” value in the assay on TPC1 cells [1] (TPC1, siSTAT3 24 hrs before 10 nM AST487, 72 hrs, HLA-A*02) was ~6 folds. In addition, in the assay on TPC1 cells [1] (TPC1 pBabe, 72 hours), the “increase in surface HLA, control group (pBabe)” value was ~3 fold. In addition, in the assay with TPC1 cells [1] (TPC1 with introduced BRAF V600E mutation), the “increase in surface HLA, BRAF V600E cells” value is listed as “about 2 fold”. Moreover, the “surface HLA” value in the assay with LC-2/ad cells is on record as “only small increases were seen; also recorded: increases in surface HLA”. The pERK levels entry in the assay on pERK in TPC1 cells is listed as “Inhibition of pERK was seen even at concentrations as low as 10 nM; also recorded: Phospho-ERK levels decreased”. Besides, in the assay on TPC1 cells [2] (TPC1 pre-incubated with RET inhibitor), the “ADCC activity of ESK1 against pretreated TPC1 cells” value is “improved antibody-dependent cellular cytotoxicity (ADCC) activity; also recorded: increased in vitro ADCC cytotoxicity”. Further, the specific lysis with TPC1 cells [2] (TPC1 pretreated 72 hrs with 10 nM AST487, ESK and PBMCs 5 hrs, 50:1 E:T) amounted to 20%. The “tumor cell surface HLA-A*02 and HLA-A,B,C in vivo” value with TPC1 tumors (10 or 35 mg/kg once daily oral gavage) is reported as “Dose related increase in HLA levels; also recorded: Dose-related increases in all HLA class I levels; also recorded: increased in a dose related manner”. Moreover, the “tumor PD-L1 levels in vivo” value with TPC1 tumors (oral gavage) is given as “no increase in PD-L1 was seen; also recorded: PD-L1 levels did not change in vivo”.
